Data as given in publication PMC12114195, “Synthesis, Experimental and Computational Evaluation of SERAAK1 as a 5-HT2A Receptor Ligand” (Molecules, 2025).

Tests used:
CYP2D6 = CYP2D6 (Homo sapiens, UniProt P10635); experiment: CYP2D6 P450 Glo luminescent assay; conditions: for inhibition at 10 µM: human
Procedure: (§1) Luminescence-based CYP3A4 P450 Glo and CYP2D6 P450 Glo kits (Promega, Madison, WI, USA) were used to assess the impact of SERAAK1 on the activity of two distinct cytochrome P450 isoforms. These assays were performed according to the protocol of the manufacturer and in alignment with the previously described methods. Each assay was performed twice in triplicate. Luminescence signals were measured using a Spark microplate reader (Tecan, Männedorf, Zürich, Switzerland).

CYP3A4 = molecular target: T1, CYP3A4 (Homo sapiens, UniProt P08684); experiment: CYP3A4 P450 Glo luminescent assay; type: in vitro ADME
T1 construct: purchased Promega
Procedure: Briefly, the effect of SERAAK1 on CYP3A was determined using a luminescent luciferase-based assay. A 10 µM concentration of the compound was tested in two experiments, each with three replicates.
as §1

HepG2 cells = experiment: MTS cytotoxicity assay, HepG2; type: cell-based, human; conditions: 72 h
Procedure: (§2) The cytotoxic properties of SERAAK1 were tested in two human cell lines, selected based on their relevance to the study objectives—the HepG2 and SH-SY5Y. Figure 7 and Figure 8 depict the results obtained in the cytotoxicity assays performed using the MTS.
(§3) The cytotoxic effect of SERAAK1 was evaluated using the colorimetric MTS assay. The study was conducted on HepG2 and SH-SY5Y cell lines, following the same protocol. Cell lines were obtained from the American Type Culture Collection (Manassas, VA, USA) and maintained under standard conditions (5% CO2, 37 °C) in DMEM/F12 medium (#31330-038, ThermoFisher Scientific, Waltham, MA, USA), supplemented with 10% FBS (#A5256801, ThermoFisher Scientific) and Penicillin-Streptomycin (#15140-122, ThermoFisher Scientific) until used in the experiment. Cells at passage numbers between 15 and 25 were seeded in 96-well plates at the concentration of 5000 cells/well in 200 μL of medium and incubated for 24 h at 37 °C with 5% CO2. […] Subsequently, plates were incubated at 37 °C, and absorbance was measured using a Spark microplate reader after 1 h for HepG2 and 3 h for SH-SY5Y. Final cell viability was calculated relative to control wells (100% viability) and wells with 10 μM doxorubicin (0% viability). […]

SH-SY5Y cells = experiment: MTS cytotoxicity assay, SH-SY5Y; type: cell-based, human; conditions: 72 h
Procedure: as §2, §3

[1] = PAMPA passive permeability; type: in vitro ADME; conditions: for Papp at 5 h, 100 μM: PBS pH 7.4, 5 h, read-out: Pe ± SD
Procedure: The PAMPA assay was utilized to evaluate the ability of SERAAK1 to passively diffuse through a lipid-infused artificial membrane. The results, gathered in Table 3, were expressed as permeability coefficient Pe, calculated according to the formulas described elsewhere.
The pre-coated PAMPA Plate System Gentest from Corning (Tewksbury, MA, USA) was used in experiments using the instructions of the manufacturer. SERAAK1 and reference compounds were diluted in the PBS buffer (pH 7.4) to the final concentration of 100 μM and placed on the 96-well donor microplate. The exact quantity of molecules that successfully penetrated from donor to acceptor wells through the phospholipid membrane was estimated after 5 h of incubation using UPLC-MS spectrometry (Waters ACQUITY™ TQD system with the TQ Detector, Waters, Milford, CT, USA). The final permeability coefficient (Pe, cm/s) calculation was performed using the formula provided by the vendor of the PAMPA Plate System.

mice [2] = experiment: Spontaneous locomotor activity; type: in vivo; conditions: 30 and 60 mg/kg i.p., 60 min before the test, one-way ANOVA
Procedure: Spontaneous locomotor activity is a meaningful parameter helping to understand the physical and mental status of laboratory animals, providing insights into general activity levels, arousal and potential sedative or stimulant effects of administered substances. We measured the distance traveled by the mice during the 20 min observation period.
(§4) The investigated compound (SERAAK1) in all tests was administered intraperitoneally (i.p.), spread in a drop of Tween 80, diluted by an aqueous solution of 0.5% methylcellulose (tylose) and injected 60 min before the tests in a volume of 10 mL/kg. Initial doses of the compound were selected based on available literature and our earlier studies. Control groups received tylose injections of the same volume and via the same route of administration.
(§5) All experiments were conducted on a 6-week-old naïve male Swiss mice weighing 24–30 g in the Experimental Medicine Center, Medical University of Lublin, Poland. […]
(§6) The automatic device—actimeter Opto-Varimex-4 Auto-Track (Columbus Instruments, Columbus, OH, USA)—was used to measure the locomotor activity of experimental animals. The mice were individually placed in cages for 25 min: the first 5 min for acclimatization and then the next 20 min for observation while the distance (in centimeters) traveled during this time was measured. […]

mice [3] = experiment: Chimney test (motor coordination); type: in vivo; conditions: 30 mg/kg and 60 mg/kg i.p., 60 min after administration
Procedure: (§7) This conclusion was supported by results from two widely used behavioral tests: the chimney test (Figure 10) and the rotarod test (Figure 11), conducted 60 min after the substance administration. In the chimney test, we measured the time it took the mice to exit the chimney, and in the second test, the time the animals stayed on the rod rotating at a constant speed of 18 rpm.
as §4
(§8) All experiments were conducted on a 6-week-old naïve male Swiss mice weighing 24–30 g in the Experimental Medicine Center, Medical University of Lublin, Poland. The animals were housed (four/five per cage) under standard laboratory conditions (room temperature of 22 ± 1 °C and a relative humidity of 50–60% during a 12/12 h light-dark cycle, lights on at 8:00). […]
(§9) The effects of SERAAK1 were also measured in the rotarod and chimney tests. In the first test, the ability of mice to balance on a rotating rod (18 rpm, constantly) was assessed for 1 min. […]

mice [4] = experiment: Rotarod test (motor coordination); type: in vivo; conditions: 30 mg/kg and 60 mg/kg i.p., 60 min after administration
Procedure: as §7, §4, §8, §9

mice [5] = experiment: Elevated plus maze test (EPM); type: in vivo; conditions: 30 mg/kg i.p.
Procedure: The effect of SERAAK1 on anxiety-like behavior in mice was assessed using the elevated plus maze test (EPM). In this test we measured three parameters: time spent in the open arms of the maze, the number of entries into the open arms—expressed as a percentage of the time spent/entries in both types of maze arms and the total number of entries into the open and closed arms of the maze, which is an additional measure of the animals’ locomotor activity. The anxiolytic activity of mice after SERAAK1 administration was expressed as the percentage of time spent in the open arms of the maze and the number of entries into these arms. Statistical analysis with a t-test indicated a significant influence of acute administration of SERAAK1 (30 mg/kg) on anxiety responses.
as §4
as §8, with “8:00). The animals had free access to laboratory food—pellet diet (LSM, Agropol Motycz, Marynin, Poland) and tap water—except for the short time when they were removed from the cages for testing.” for “8:00).”
Anxiety behaviors were measured using the EPM test according to the Lister method. […] The time spent in the EPM open arms, the number of entries into the open arms, and the total number of entries into both types of arms were measured.

mice [6] = experiment: Forced swim test (FST); type: in vivo; conditions: 30 mg/kg i.p., 60 min before the test, vs control, p < 0.01
Procedure: The forced swim test (FST) is commonly used in rodent laboratory models to assess the efficacy of a potential antidepressant drug in alleviating or preventing depressive-like states. In the FST, we estimated the immobility time of animals, illustrating it […]. In this study, a t-test was used to assess the statistically significant effect of acute administration of SERAAK1 (30 mg/kg) on mice behavior in the FST.
as §4, §5
The study was carried out using the test proposed by R. Porsolt. […] The immobility time, considered as the state in which the mouse performs only those movements necessary to keep its head above the water, is measured between 2 and 6 min.

mice [7] = experiment: Amphetamine-induced hyperactivity; type: in vivo
Procedure: In this test, we measured the distance traveled by the mice during the 20 min observation period. […] Pretreatment concerns the administration of amphetamine, and treatment concerns the tested compound.
as §4, §8, §6

5-HT2A receptor [8] = molecular target: 5-HT2A receptor; parameters: method as in PMID 38619283; conditions: radioligand binding; cited from earlier work
5-HT1A receptor = molecular target: 5-HT1A receptor; parameters: method as in PMID 38619283; conditions: radioligand binding; cited from earlier work
D2 receptor = molecular target: D2 receptor; parameters: method as in PMID 38619283; conditions: radioligand binding; cited from earlier work
5-HT2A receptor [9] = molecular target: 5-HT2A receptor; parameters: method as in PMID 38619283; conditions: functional studies; read-out: Kb, antagonist of the 5-HT2A receptor; cited from earlier work
[10] = 30 µM (highest concentration tested)
[11] = 60 min before the test, vs control, p < 0.001

CYP2D6, sequence (P10635 whole entry, canonical isoform): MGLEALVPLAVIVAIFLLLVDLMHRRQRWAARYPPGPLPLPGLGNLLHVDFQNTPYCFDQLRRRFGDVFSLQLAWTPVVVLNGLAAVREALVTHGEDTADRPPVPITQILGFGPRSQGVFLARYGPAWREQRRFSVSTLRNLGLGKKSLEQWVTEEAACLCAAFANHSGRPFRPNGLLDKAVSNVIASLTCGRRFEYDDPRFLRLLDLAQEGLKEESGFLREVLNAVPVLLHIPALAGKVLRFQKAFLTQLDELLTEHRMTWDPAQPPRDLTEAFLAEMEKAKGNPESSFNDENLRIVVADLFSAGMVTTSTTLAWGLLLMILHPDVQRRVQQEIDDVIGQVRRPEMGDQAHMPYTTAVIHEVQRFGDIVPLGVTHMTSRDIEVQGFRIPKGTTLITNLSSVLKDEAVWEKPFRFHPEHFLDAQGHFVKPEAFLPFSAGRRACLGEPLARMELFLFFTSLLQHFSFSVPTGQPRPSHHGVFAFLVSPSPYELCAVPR
T1 sequence (P08684 whole entry): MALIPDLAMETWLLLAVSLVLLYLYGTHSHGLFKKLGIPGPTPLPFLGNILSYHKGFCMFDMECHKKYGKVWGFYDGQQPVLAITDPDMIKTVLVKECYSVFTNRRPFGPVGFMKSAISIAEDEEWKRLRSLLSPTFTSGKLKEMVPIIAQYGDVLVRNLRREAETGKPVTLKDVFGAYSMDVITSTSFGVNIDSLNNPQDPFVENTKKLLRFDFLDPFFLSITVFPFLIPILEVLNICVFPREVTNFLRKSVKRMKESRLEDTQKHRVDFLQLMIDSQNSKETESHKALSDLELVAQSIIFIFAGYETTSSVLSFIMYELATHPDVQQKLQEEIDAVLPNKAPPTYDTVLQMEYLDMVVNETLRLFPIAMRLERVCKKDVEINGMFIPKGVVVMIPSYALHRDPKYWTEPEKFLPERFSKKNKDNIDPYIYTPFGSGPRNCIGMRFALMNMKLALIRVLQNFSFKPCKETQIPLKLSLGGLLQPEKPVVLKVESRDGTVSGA

## C=C[C@H]1C[N@@]2CC[C@H]1C[C@@H]2[C@@H](O)c1ccnc2ccc(OC)cc12 [Quinidine, reference compound]
CYP2D6; CYP2D6 P450 Glo kit (Promega)
  inhibition at 10 µM: 100 ± 1%

## OC(COC(c1ccccc1)c1ccccc1)CN1CCN(C(c2ccccc2)c2ccccc2)CC1 (stereo not shown) [SERAAK1, 1-(benzhydryloxy)-3-(4-benzhydrylpiperazin-1-yl)propan-2-ol]
CYP3A4; concentrations > 100 nM, up to 10 µM
  CYP3A4 induction, dose-response: induce CYP3A4 in a dose-dependent manner
CYP3A4; human, CYP3A4 P450 Glo kit (Promega), 10 µM, a negative value indicates a stimulating effect, read-out: CYP3A4 Activity Inhibition, Evaluated in the Concentration of 10 µM [% of Inhibition ± SEM]
  inhibition at 10 µM: -352 ± 9%
CYP2D6
  CYP2D6 inhibition concentration range (IC50): submicromolar
  inhibition at 10 µM: 95 ± 1%
HepG2 cells; 0.3 µM, 3 µM
  Toxic influence on HepG2 cells at lower concentrations: no toxic influence
HepG2 cells; [10]
  % inhibition of cell proliferation (cytotoxic effect), HepG2: 84 ± 3%
SH-SY5Y cells; 0.3 µM, 3 µM
  Toxic influence on SH-SY5Y cells at lower concentrations: no toxic influence
SH-SY5Y cells; [10]
  % inhibition of cell proliferation, SH-SY5Y: 50 ± 5%
[1]
  Passive permeation through the lipid bilayer: did not permeate passively
  Papp at 5 h, 100 μM: < 0.01 ×10⁻⁶ cm/s
Mice [2]
  Spontaneous locomotor activity (distance traveled in 20 min): did not show any significant changes
Mice [3]
  Motor coordination, chimney test (time to exit the chimney): did not reveal any statistically significant effects
Mice [4]
  Motor coordination, rotarod test (time on the rod, 18 rpm): did not reveal any statistically significant effects
Mice [5]
  Total arm entries, overall mobility (EPM): did not change the overall mobility
Mice [5]; [11]
  Increase in percentage of open arm entries (EPM): 19.34%
  Increase in percentage of time spent on the open arms (EPM): 12.9%
Mice [6]
  Reduction in immobility time (FST): 29.2%
Mice [7]; 30 mg/kg with amphetamine (5 mg/kg), vs amphetamine-treated group, p < 0.05
  Decrease of amphetamine-induced hyperactivity (distance traveled in 20 min): 22.15%
5-HT2A receptor [8]
  Ki: 0.826 ± 0.051 µM
5-HT1A receptor
  Ki: 1.43 ± 0.108 µM
D2 receptor
  Ki: 1.29 ± 0.323 µM
5-HT2A receptor [9]
  Kb: 0.462 µM

## CCN1CCCC1CNC(=O)c1cc(S(N)(=O)=O)ccc1OC (stereo not shown) [Sulpiride, reference compound]
[1]
  Papp at 5 h, 100 μM: 0.011 ± 0.002 ×10⁻⁶ cm/s

## CC(N)Cc1ccccc1 (stereo not shown) [amphetamine, reference compound]
Mice [7]; amphetamine alone, p < 0.001
  Locomotor activity (distance traveled) vs saline-treated group: increased the locomotor activity
